Test results taken from patent publication US20060089395A1, “Nf-kb activation inhibitors” (priority 2002, published 2006).
Like-named read-outs stand apart in the source and are kept apart here.

System: NF-κ B
Test: Inhibitory activity of NF-κ B activation, luciferase reporter assay in HepG2 under TNF-α stimulation
Assay type: cell-based, human
Experimental: Using a transfection reagent(Effectene; QIAGEN), the human hepatoma cell strain HepG2 was transfected with a plasmid(pNF κ B-Luc Reporter Plasmid; […]) which is integrated with an oligonucleotide having five tandem copies of NF-κ B binding sequences([…]) on a upstream region of firefly luciferase gene(Luc) according to the QIAGEN's protocol, and the cells were incubated for 6 to 24 hours. After the addition of TNF-α (40 ng/ml) in the presence or absence of a test compound, the cells were incubated for 4 hours, and intracellular luciferase activity was measured by using PicaGene LT (TOYO INK MFG Co., Ltd.) and a chemical luminescence measurement apparatus ([…]luor Plus; TECAN). The inhibitory ratio was measured as a ratio relative to the value of a luciferase activity in the absence of the test compound.

[1] = Homo sapiens, 1 μg/mL, HepG2, TNF-α (40 ng/ml), 4 hours, read-out: Inhibitory Ratio of NF-κ B Activation(%) Drug Concentration 1 μg/mL
[2] = Homo sapiens, 10 μg/mL, HepG2, TNF-α (40 ng/ml), 4 hours, read-out: Inhibitory Ratio of NF-κ B Activation(%) Drug Concentration 10 μg/mL
[3] = 1 μg/mL, HepG2, TNF-α (40 ng/ml), 4 hours
[4] = 10 μg/mL, HepG2, TNF-α (40 ng/ml), 4 hours

SMILES	inhibition at 1 µg/mL [1]	inhibition at 10 µg/mL [2]	Inhibitory Ratio of NF-κ B Activation(%) Drug Concentration 1 μg/mL [3]	Inhibitory Ratio of NF-κ B Activation(%) Drug Concentration 10 μg/mL [4]	further results
O=C(Nc1cc(C(F)(F)F)ccc1C(F)(F)F)c1cc(Cl)ccc1O [Compound No.81, N-[2,5-bis(trifluoromethyl)phenyl]-5-chloro-2-hydroxybenzamide]	95%	96.3%			inhibition at 0.1 µg/mL (Homo sapiens, HepG2, 4 h, 0.1 μg/ml, comparison table, reporter assay, read-out: Inhibitory Ratio of NF-κB Activation (%) 0.1 μg/ml): 27%; inhibition at 1 µg/mL (Homo sapiens, HepG2, 4 h, 1 μg/ml, comparison table, reporter assay, read-out: Inhibitory Ratio of NF-κB Activation (%) 1 μg/ml): 95%; inhibition at 10 µg/mL (Homo sapiens, HepG2, 4 h, 10 μg/ml, comparison table, reporter assay, read-out: Inhibitory Ratio of NF-κB Activation (%) 10 μg/ml): 96.3%
O=C(Nc1cc(C(F)(F)F)cc(C(F)(F)F)c1)c1cc(I)ccc1O [Compound No. 7, N-[3,5-bis(trifluoromethyl)phenyl]-2-hydroxy-5-iodobenzamide]	86.6%	85.4%			
O=C(Nc1cc(C(F)(F)F)cc(C(F)(F)F)c1)c1cc([N+](=O)[O-])ccc1O [Compound No. 8, N-[3,5-bis(trifluoromethyl)phenyl]-2-hydroxy-5-nitrobenzamide]	92%	99.2%			
CC(=O)c1ccc(O)c(C(=O)Nc2cc(C(F)(F)F)cc(C(F)(F)F)c2)c1 [Compound No. 12, 5-acetyl-N-[3,5-bis(trifluoromethyl)phenyl]-2-hydroxybenzamide]	86.3%	99.2%			
CC(O)c1ccc(O)c(C(=O)Nc2cc(C(F)(F)F)cc(C(F)(F)F)c2)c1 (centres unmarked) [Compound No. 13]			76.8%	96.0%	
CON=C(C)c1ccc(O)c(C(=O)Nc2cc(C(F)(F)F)cc(C(F)(F)F)c2)c1 [Compound No. 14]			94.7%	98.3%	
CC(=NOCc1ccccc1)c1ccc(O)c(C(=O)Nc2cc(C(F)(F)F)cc(C(F)(F)F)c2)c1 [Compound No. 15]			94.5%	99.2%	
N#CC(C#N)=Cc1ccc(O)c(C(=O)Nc2cc(C(F)(F)F)cc(C(F)(F)F)c2)c1 [Compound No. 16, N-[3,5-Bis(trifluoromethyl)phenyl]-5-(2,2-dicyanoethen-1-yl)-2-hydroxybenzamide]	42.7%	99.4%			
COC(=O)C(C#N)=Cc1ccc(O)c(C(=O)Nc2cc(C(F)(F)F)cc(C(F)(F)F)c2)c1 [Compound No. 17, 3-({N-[3,5-bis(trifluoromethyl)phenyl]carbamoyl}-4-hydroxyphenyl)-2-cyanoacrylic acid methyl ester]			74.9%	99.1%	
N#CC(=Cc1ccc(O)c(C(=O)Nc2cc(C(F)(F)F)cc(C(F)(F)F)c2)c1)C(=O)O [Compound No. 18]			59.7%	98.5%	
C[Si](C)(C)C#Cc1ccc(O)c(C(=O)Nc2cc(C(F)(F)F)cc(C(F)(F)F)c2)c1 [Compound No. 20, N-[3,5-bis(trifluoromethyl)phenyl]-2-hydroxy-5-[(trimethylsilyl)ethynyl]benzamide]	91.1%	94.9%			
C#Cc1ccc(O)c(C(=O)Nc2cc(C(F)(F)F)cc(C(F)(F)F)c2)c1 [Compound No. 21]			53.3%	90.1%	
O=C(Nc1cc(C(F)(F)F)cc(C(F)(F)F)c1)c1cc(C(F)(F)C(F)(F)F)ccc1O [Compound No. 26]			93.3%	95.4%	
O=C(Nc1cc(C(F)(F)F)cc(C(F)(F)F)c1)c1cc(-c2cccs2)ccc1O [Compound No. 28]			79.5%	97.8%	
Cc1nc(-c2ccc(O)c(C(=O)Nc3cc(C(F)(F)F)cc(C(F)(F)F)c3)c2)cs1 [Compound No. 30, N-[3,5-Bis(trifluoromethyl)phenyl]-2-hydroxy-5-(2-methylthiazol-4-yl)benzamide]	82.1%	95.3%			
O=C(Nc1cc(C(F)(F)F)cc(C(F)(F)F)c1)c1cc(-c2ccccn2)ccc1O [Compound No. 32, N-[3,5-Bis(trifluoromethyl)phenyl]-2-hydroxy-5-(pyridin-2-yl)benzamide]	90.4%	99%			

SMILES	inhibition at 1 µg/mL [1]	inhibition at 10 µg/mL [2]	Inhibitory Ratio of NF-κ B Activation(%) Drug Concentration 1 μg/mL [3]	Inhibitory Ratio of NF-κ B Activation(%) Drug Concentration 10 μg/mL [4]	further results
COc1ccc(O)c(C(=O)Nc2cc(C(F)(F)F)cc(C(F)(F)F)c2)c1 [Compound No. 33]			30.7%	97.0%	
CC(C)C(=O)c1ccc(O)c(C(=O)Nc2cc(C(F)(F)F)cc(C(F)(F)F)c2)c1 [Compound No. 34, N-[3,5-Bis(trifluoromethyl)phenyl]-2-hydroxy-5-isobutyrylbenzamide]	90.7%	98.7%			
COC(=O)c1ccc(O)c(C(=O)Nc2cc(C(F)(F)F)cc(C(F)(F)F)c2)c1 [Compound No. 35, N-[3,5-bis(trifluoromethyl)phenyl]-4-hydroxyisophthalamic acid methyl ester]	88.2%	96.4%			
O=C(Nc1cc(C(F)(F)F)cc(C(F)(F)F)c1)c1ccc(O)c(C(=O)Nc2cc(C(F)(F)F)cc(C(F)(F)F)c2)c1 [Compound No. 37]				94.5%	
CN(C)C(=O)c1ccc(O)c(C(=O)Nc2cc(C(F)(F)F)cc(C(F)(F)F)c2)c1 [Compound No. 38, N^3-[3,5-bis(trifluoromethyl)phenyl]-4-hydroxy-N^1,N^1-dimethylisophthalamide]	16%	87.1%			
O=C(Nc1cc(C(F)(F)F)cc(C(F)(F)F)c1)c1cc(C(=O)N2CCCCC2)ccc1O [Compound No. 39, N-[3,5-Bis(trifluoromethyl)phenyl]-2-hydroxy-5-(piperidine-1-carbonyl)benzamide]	23.7%	82.2%			
CN(C)S(=O)(=O)c1ccc(O)c(C(=O)Nc2cc(C(F)(F)F)cc(C(F)(F)F)c2)c1 [Compound No. 41, N-[3,5-Bis(trifluoromethyl)phenyl]-5-dimethylsufamoyl-2-hydroxybenzamide]			42.2%	95.9%	
O=C(Nc1cc(C(F)(F)F)cc(C(F)(F)F)c1)c1cc(S(=O)(=O)n2cccc2)ccc1O [Compound No. 42, N-[3,5-Bis(trifluoromethyl)phenyl]-2-hydroxy-5-(pyrrole-1-sulfonyl)benzamide]	84.4%	98.1%			
CN(C)c1ccc(O)c(C(=O)Nc2cc(C(F)(F)F)cc(C(F)(F)F)c2)c1 [Compound No. 44]				67.5%	
O=C(Nc1ccc(O)c(C(=O)Nc2cc(C(F)(F)F)cc(C(F)(F)F)c2)c1)c1ccccc1 [Compound No. 45]				63.4%	
O=C(Nc1ccccc1)Nc1ccc(O)c(C(=O)Nc2cc(C(F)(F)F)cc(C(F)(F)F)c2)c1 [Compound No. 46]			20.5%	88.4%	
O=C(Nc1cc(C(F)(F)F)cc(C(F)(F)F)c1)c1cc(NC(=S)Nc2ccccc2)ccc1O [Compound No. 47]			51.8%	97.2%	
O=C(Nc1cc(C(F)(F)F)cc(C(F)(F)F)c1)c1cc(N=Nc2ccc([N+](=O)[O-])cc2)ccc1O [Compound No. 48]			96.2%	98.7%	
O=C(Nc1cc(C(F)(F)F)cc(C(F)(F)F)c1)c1cc(N=Nc2ccc(S(=O)(=O)Nc3ccccn3)cc2)ccc1O [Compound No. 49]			19.4%	89.1%	
CC(=O)Nc1cc(O)c(C(=O)Nc2cc(C(F)(F)F)cc(C(F)(F)F)c2)cc1Cl [Compound No. 50, 4-Acetylamino-N-[3,5-bis(trifluoromethyl)phenyl]-5-chloro-2-hydoxybenzamide]			69.9%	96.0%	
